From patent publication US4409232A, “Substituted oxadiazoles, method for the production thereof, compositions containing them and method of use thereof” (priority 1980, dated 1983)
“Also recorded” adds a separate entry of the source.

What was measured:
[1] = tested on: β1 receptors of the heart versus β2 receptors (atrium / trachea); assay: Cardioselectivity: antilog pA2 (atrium)-pA2 (trachea); format: cell-based, guinea pig; settings: for Cardioselectivity antilog pA2 (A)-pA2 (T): antilog of pA2 (atrium) - pA2 (trachea), guinea pig; for cardioselectivity (in words): qualitative statement
Excerpt: Most commercial β-adrenolytics of similar structure influence both β1 and β2 receptors; that is, they inhibit the effect of the sympathetic nervous system on the heart as well as on the peripheral blood vessels or the bronchial muscles. Blocking of the β2 receptors leads to an increase in tonus of the smooth muscle with broncho spasms and increased resistance of the peripheral vessels. […] This is because β2 receptor-blocking substances are not to be administered in bronchial diseases (such as asthma) because of their broncho-constrictive action. However, treatment of […].
(§1) pA2 The strength of a beta-adrenoceptor blocker. Corresponds to the negative logarithm of the molar concentration of an antagonist which requires a doubling of the molar concentration of the agonist to achieve a given effect on isolated tissue. As test tissue are used the atrium and trachea of guinea pigs.
Cardioselectivity: antilog pA2 (atrium)-pA2 (trachea)

[2] = tested on: beta-agonistic action (heart frequency); assay: Intrinsic sympathomimetic activity (ISA): increase of heart frequency in reserpinized rats relative to isoprenaline; format: in vivo, rat; settings: for ISA % isoprenaline action: increase of heart frequency, reserpinized rats, isoprenaline maximum = 100%
Protocol: ISA: "Intrinsic sympathomimetic activity" (betaa -agonistic action). The percent increase of the heart frequency which is induced by a substance, referred to the maximum reaction of isoprenaline (100%). The measurements are carried out on reserpinolized rats which no longer show a sympathic tonus.

[3] = biological target: T1, beta-adrenoceptor (atrium) (Cavia porcellus, UniProt H0W3H1); assay: pA2 as beta-adrenoceptor blocker on isolated guinea pig atrium; format: cell-based
T1 construct: As test tissue are used the atrium and trachea of guinea pigs; from tissue; host or cells: isolated guinea pig atrium
Excerpt: as §1, with “The terms used in Table 1 are defined as follows (from B. J. Clark: "Pharmacology of beta-adrenoceptor blocking agents" in "beta-Adrenoceptor blocking agents", P. R. Saxena and R. P. Forsyth edition. pA2” for “pA2”

[4] = biological target: T2, beta-adrenoceptor (trachea) (Cavia porcellus, UniProt Q8K4Z4); assay: pA2 as beta-adrenoceptor blocker on isolated guinea pig trachea; format: cell-based
T2 construct: As test tissue are used the atrium and trachea of guinea pigs; from tissue; host or cells: isolated guinea pig trachea
Excerpt: as §1, with “The terms used in Table 1 are defined as follows (from B. J. Clark: "Pharmacology of beta-adrenoceptor blocking agents" in "beta-Adrenoceptor blocking agents", P. R. Saxena and R. P. Forsyth edition. pA2” for “pA2”

beta-adrenolytic action = assay: Half-life of the beta-adrenolytic action in rabbits after i.v. application; format: in vivo, rabbit; settings: for t1/2 of beta-adrenolytic action: rabbits, i.v., time at which action has decreased to one half
Excerpt: […] : Time at which the beta-adrenolytic action of a substance in rabbits after i.v. application has decreased to one half.

T1 sequence (H0W3H1 1-470): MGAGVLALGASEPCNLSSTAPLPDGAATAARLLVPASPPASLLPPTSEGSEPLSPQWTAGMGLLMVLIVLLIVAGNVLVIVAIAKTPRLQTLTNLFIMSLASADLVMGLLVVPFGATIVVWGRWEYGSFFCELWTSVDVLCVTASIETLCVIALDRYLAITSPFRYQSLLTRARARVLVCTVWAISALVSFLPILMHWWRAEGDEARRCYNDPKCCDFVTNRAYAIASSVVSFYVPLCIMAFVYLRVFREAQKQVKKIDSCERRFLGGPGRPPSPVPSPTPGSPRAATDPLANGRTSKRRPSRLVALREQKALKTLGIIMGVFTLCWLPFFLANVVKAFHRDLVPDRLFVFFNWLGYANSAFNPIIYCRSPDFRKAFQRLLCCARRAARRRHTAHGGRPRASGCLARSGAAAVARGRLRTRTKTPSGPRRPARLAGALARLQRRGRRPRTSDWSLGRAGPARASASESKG
T2 sequence (Q8K4Z4 whole entry): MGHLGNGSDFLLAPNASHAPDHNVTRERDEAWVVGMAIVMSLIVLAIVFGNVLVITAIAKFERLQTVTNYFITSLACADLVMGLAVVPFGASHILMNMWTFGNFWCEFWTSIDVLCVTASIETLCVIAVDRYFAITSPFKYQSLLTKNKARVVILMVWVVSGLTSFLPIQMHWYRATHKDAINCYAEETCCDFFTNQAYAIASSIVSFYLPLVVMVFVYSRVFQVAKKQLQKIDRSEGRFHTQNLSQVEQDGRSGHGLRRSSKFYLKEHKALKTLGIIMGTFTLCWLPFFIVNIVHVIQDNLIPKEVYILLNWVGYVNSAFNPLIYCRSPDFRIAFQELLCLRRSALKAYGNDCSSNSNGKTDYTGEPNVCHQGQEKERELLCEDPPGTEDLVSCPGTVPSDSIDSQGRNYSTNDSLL

**Q.** Which Local anesth. action (Local anesthetic action) does the source give for `CCCCCCCCCC(=O)Nc1ccc(OCC(O)CNC(C)(C)C)c(-c2nnco2)c1` (centres unmarked) [Example 6, 2-[2-(2-hydroxy-3-tert.-butylamino-propoxy)-5-n-decanoylamino-phenyl]-1,3,4oxadiazole] here?
**A.** 0

**Q.** What about the “Cardioselectivity antilog pA2 (A)-pA2 (T)” value [1] of the same molecule?
**A.** 20

**Q.** What about the “cardioselectivity (in words)” value [1] of the same molecule?
**A.** preferred for their selectivity

**Q.** What about the “ISA % isoprenaline action” value [2] of the same molecule?
**A.** 0%

**Q.** What about the Kb [3] of the same molecule?
**A.** 79.4 nM

**Q.** What about the Kb [4] of the same molecule?
**A.** 1580 nM

**Q.** Which results are given for `CC(=O)Nc1ccc(OCC(O)CNC(C)(C)C)c(-c2nnco2)c1` (centres unmarked) [Example 1, 2-[2-(2-hydroxy-3-tert.-butylamino-propoxy)-5-acetamido-phenyl]-1,3,4 oxadiazole]?
**A.** t1/2 of beta-adrenolytic action (beta-adrenolytic action): 5 h; Local anesth. action (Local anesthetic action): 0; Cardioselectivity antilog pA2 (A)-pA2 (T) [1]: 17; cardioselectivity (in words) [1]: preferred for their selectivity; ISA % isoprenaline action [2]: 0%; Kb [3]: 209 nM; Kb [4]: 4170 nM

**Q.** For `CCCCCCCC(=O)Nc1ccc(OCC(O)CNC(C)(C)C)c(-c2nnco2)c1` (centres unmarked) [Example 4, 2-[2-(2-hydroxy-3-tert.-butylamino-propoxy)-5-n-octanoylaminophenyl]-1,3,4 oxadiazole], which Local anesth. action (Local anesthetic action) is on record?
**A.** 0

**Q.** What about the “Cardioselectivity antilog pA2 (A)-pA2 (T)” value [1] of the same molecule?
**A.** 32

**Q.** And the “cardioselectivity (in words)” value [1]?
**A.** preferred for their selectivity

**Q.** What about the “ISA % isoprenaline action” value [2] of the same molecule?
**A.** 0%

**Q.** What about the Kb [3] of the same molecule?
**A.** 39.8 nM

**Q.** And the Kb [4]?
**A.** 1260 nM

**Q.** Which results are given for `CCCCCCC(=O)Nc1ccc(OCC(O)CNC(C)(C)C)c(-c2nnco2)c1` (centres unmarked) [Example 2, 2-[2-(2-hydroxy-3-tert.-butylamino-propoxy)-5-n-heptanoylaminophenyl]-1,3,4oxadiazole]?
**A.** half-life (in words) (beta-adrenolytic action; qualitative statement): particularly long half-life; t1/2 of beta-adrenolytic action (beta-adrenolytic action): 3.5 h; Local anesth. action (Local anesthetic action): 0; Cardioselectivity antilog pA2 (A)-pA2 (T) [1]: 25; cardioselectivity (in words) ([1]; listed as (c)): preferred for their selectivity; also recorded: highly selectively active; ISA % isoprenaline action [2]: 0%; Kb [3]: 50.1 nM; Kb [4]: 1260 nM

**Q.** Which “cardioselectivity (in words)” value [1] does the source give for `CCCCCCCCC(=O)Nc1ccc(OCC(O)CNC(C)(C)C)c(-c2nnco2)c1` (centres unmarked) [Example 5, 2-[2-(2-hydroxy-3-tert.-butylamino-propoxy)-5-n-nonanoylaminophenyl]-1,3,4 oxadiazole] here?
**A.** preferred for their selectivity

**Q.** For `CCCC(=O)Nc1ccc(OCC(O)CNC(C)C)c(C(C)=O)c1` (centres unmarked) [Comparison Substance 1, Acebutolol, reference compound], which “t1/2 of beta-adrenolytic action” value (beta-adrenolytic action) is on record?
**A.** 1.6 h

**Q.** And the Local anesth. action (Local anesthetic action)?
**A.** present

**Q.** What about the “ISA % isoprenaline action” value [2] of the same molecule?
**A.** 27%

**Q.** And the Kb [4]?
**A.** 9770 nM

**Q.** For `CC(C)(C)NCC(O)COc1ccccc1-c1nnco1` (centres unmarked) [Comparison Substance 2, 2-[2-(2-hydroxy-3-tert.butylamino-propoxy)-phenyl]-1,3,4-oxadiazole, reference compound], which Local anesth. action (Local anesthetic action) is on record?
**A.** 0

**Q.** What about the “Cardioselectivity antilog pA2 (A)-pA2 (T)” value [1] of the same molecule?
**A.** 3

**Q.** What about the “ISA % isoprenaline action” value [2] of the same molecule?
**A.** 79%

**Q.** What about the “agonistic / isoprenaline action (in words)” value ([2]; qualitative statement) of the same molecule?
**A.** high isoprenaline action

**Q.** What about the Kb [3] of the same molecule?
**A.** 50.1 nM

**Q.** What about the Kb [4] of the same molecule?
**A.** 158 nM
